Laboratory results taken from ChEMBL document CHEMBL1201862, “PubChem BioAssay data set” (2004).
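Dose response: 5 concentrations. Exposure: 48 h. Format: 96-well plates. Endpoint: linear interpolation; highest concentration if not reached. At the GI50, growth is halved.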 Activity calls are given as the source filed them. Rule as the data show it: active = GI50 up to about 1.1 µM and inactive = higher.

Assays:
Experiment in all cases: NCI anticancer screen, dose series, 48 h
786-0 = tested on: 786-0
Hs-578T = tested on: Hs-578T
KM12 = tested on: KM12
A498 = tested on: A498
DU-145 = tested on: DU-145
SNB-19 = tested on: SNB-19
SR = tested on: SR
CAKI-1 = tested on: CAKI-1
SN12C = tested on: SN12C
HCC 2998 = tested on: HCC 2998
BT-549 = tested on: BT-549
MDA-MB-435 = tested on: MDA-MB-435
IGROV-1 = tested on: IGROV-1
HCT-116 = tested on: HCT-116
OVCAR-8 = tested on: OVCAR-8
UACC-257 = tested on: UACC-257
M14 = tested on: M14
Malme-3M = tested on: Malme-3M
SNB-75 = tested on: SNB-75
OVCAR-5 = tested on: OVCAR-5
OVCAR-3 = tested on: OVCAR-3
RPMI-8226 = tested on: RPMI-8226
MDA-N = tested on: MDA-N
RXF 393 = tested on: RXF 393
ACHN = tested on: ACHN
HOP-62 = tested on: HOP-62
PC-3 = tested on: PC-3
SK-OV-3 = tested on: SK-OV-3
UACC-62 = tested on: UACC-62
TK-10 = tested on: TK-10
LOX IMVI = tested on: LOX IMVI
SW-620 = tested on: SW-620
K562 = tested on: K562
NCI-H23 = tested on: NCI-H23
MOLT-4 = tested on: MOLT-4
SF-295 = tested on: SF-295
MDA-MB-231 = tested on: MDA-MB-231
HCT-15 = tested on: HCT-15
SK-MEL-5 = tested on: SK-MEL-5
NCI/ADR-RES = tested on: NCI/ADR-RES
SK-MEL-2 = tested on: SK-MEL-2
CCRF-CEM = tested on: CCRF-CEM
SK-MEL-28 = tested on: SK-MEL-28
SF-268 = tested on: SF-268
HT-29 = tested on: HT-29
UO-31 = tested on: UO-31
COLO 205 = tested on: COLO 205
U-251 = tested on: U-251
HL-60 = tested on: HL-60
T47D = tested on: T47D
SF-539 = tested on: SF-539
HOP-92 = tested on: HOP-92
A549 = tested on: A549
OVCAR-4 = tested on: OVCAR-4
NCI-H522 = tested on: NCI-H522
NCI-H460 = tested on: NCI-H460
EKVX = tested on: EKVX
MCF7 = tested on: MCF7
NCI-H226 = tested on: NCI-H226

## C=CC(C)CCC(C/C=C(\C)CCC=C(C)C)C(=C)CCCC(C)C (stereo not drawn)
786-0
  GI50: > 100 µM (inactive)
Hs-578T
  GI50: > 100 µM (inactive)
KM12
  GI50: > 100 µM (inactive)
A498
  GI50: > 100 µM (inactive)
DU-145
  GI50: > 100 µM (inactive)
SNB-19
  GI50: > 100 µM (inactive)
SR
  GI50: > 100 µM (inactive)
CAKI-1
  GI50: > 100 µM (inactive)
SN12C
  GI50: > 100 µM (inactive)
HCC 2998
  GI50: > 100 µM (inactive)
BT-549
  GI50: > 100 µM (inactive)
MDA-MB-435
  GI50: > 100 µM (inactive)
IGROV-1
  GI50: > 100 µM (inactive)
HCT-116
  GI50: > 100 µM (inactive)
OVCAR-8
  GI50: > 100 µM (inactive)
UACC-257
  GI50: > 100 µM (inactive)
M14
  GI50: > 100 µM (inactive)
Malme-3M
  GI50: > 100 µM (inactive)
SNB-75
  GI50: > 100 µM (inactive)
OVCAR-5
  GI50: > 100 µM (inactive)
OVCAR-3
  GI50: > 100 µM (inactive)
RPMI-8226
  GI50: > 100 µM (inactive)
MDA-N
  GI50: > 100 µM (inactive)
RXF 393
  GI50: > 100 µM (inactive)
ACHN
  GI50: > 100 µM (inactive)
HOP-62
  GI50: > 100 µM (inactive)
PC-3
  GI50: > 100 µM (inactive)
SK-OV-3
  GI50: > 100 µM (inactive)
UACC-62
  GI50: > 100 µM (inactive)
TK-10
  GI50: > 100 µM (inactive)
LOX IMVI
  GI50: > 100 µM (inactive)
SW-620
  GI50: > 100 µM (inactive)
K562
  GI50: > 100 µM (inactive)
NCI-H23
  GI50: > 100 µM (inactive)
MOLT-4
  GI50: > 100 µM (inactive)
SF-295
  GI50: > 100 µM (inactive)
MDA-MB-231
  GI50: > 100 µM (inactive)
HCT-15
  GI50: > 100 µM
SK-MEL-5
  GI50: > 100 µM (inactive)
NCI/ADR-RES
  GI50: > 100 µM (inactive)
SK-MEL-2
  GI50: > 100 µM (inactive)
CCRF-CEM
  GI50: > 100 µM (inactive)
SK-MEL-28
  GI50: > 100 µM (inactive)
SF-268
  GI50: > 100 µM (inactive)
HT-29
  GI50: > 100 µM (inactive)
UO-31
  GI50: > 100 µM (inactive)
COLO 205
  GI50: > 100 µM (inactive)
U-251
  GI50: > 100 µM (inactive)
HL-60
  GI50: > 100 µM (inactive)
T47D
  GI50: > 100 µM (inactive)
SF-539
  GI50: > 100 µM (inactive)
HOP-92
  GI50: > 100 µM (inactive)
A549
  GI50: > 100 µM (inactive)
OVCAR-4
  GI50: > 100 µM (inactive)
NCI-H522
  GI50: > 100 µM (inactive)
NCI-H460
  GI50: > 100 µM (inactive)
EKVX
  GI50: > 100 µM (inactive)
MCF7
  GI50: > 100 µM (inactive)

## O=c1[nH]c(=O)n(C2COC(CO)C2O)cc1F (stereo not drawn)
786-0
  GI50: 70 µM (inactive)
Hs-578T
  GI50: > 100 µM (inactive)
KM12
  GI50: > 100 µM (inactive)
A498
  GI50: 5.28 µM (inactive)
DU-145
  GI50: 29.8 µM (inactive)
SNB-19
  GI50: > 100 µM (inactive)
SR
  GI50: 95.3 µM (inactive)
CAKI-1
  GI50: > 100 µM (inactive)
SN12C
  GI50: 28.3 µM (inactive)
HCC 2998
  GI50: 8.73 µM (inactive)
BT-549
  GI50: 32.7 µM (inactive)
MDA-MB-435
  GI50: 48.9 µM (inactive)
IGROV-1
  GI50: 32.4 µM (inactive)
HCT-116
  GI50: 9.98 µM (inactive)
OVCAR-8
  GI50: 57 µM (inactive)
UACC-257
  GI50: 60.4 µM (inactive)
M14
  GI50: 50.6 µM (inactive)
Malme-3M
  GI50: 9.29 µM (inactive)
SNB-75
  GI50: 31 µM (inactive)
OVCAR-5
  GI50: > 100 µM (inactive)
OVCAR-3
  GI50: 15.5 µM (inactive)
RPMI-8226
  GI50: 36.5 µM (inactive)
MDA-N
  GI50: 25.2 µM (inactive)
RXF 393
  GI50: 2.94 µM (inactive)
ACHN
  GI50: 38.5 µM (inactive)
HOP-62
  GI50: 17.7 µM (inactive)
PC-3
  GI50: 36.1 µM (inactive)
SK-OV-3
  GI50: 74.6 µM (inactive)
NCI-H226
  GI50: > 100 µM (inactive)
UACC-62
  GI50: 22.1 µM (inactive)
TK-10
  GI50: 68.1 µM (inactive)
LOX IMVI
  GI50: 11 µM (inactive)
SW-620
  GI50: 55.3 µM (inactive)
K562
  GI50: 56.5 µM (inactive)
NCI-H23
  GI50: 15.1 µM (inactive)
MOLT-4
  GI50: 39 µM (inactive)
SF-295
  GI50: 30.5 µM (inactive)
MDA-MB-231
  GI50: > 100 µM (inactive)
HCT-15
  GI50: 16.4 µM
SK-MEL-5
  GI50: 21.4 µM (inactive)
NCI/ADR-RES
  GI50: 72.1 µM (inactive)
SK-MEL-2
  GI50: 61.4 µM (inactive)
CCRF-CEM
  GI50: 74.8 µM (inactive)
SK-MEL-28
  GI50: 26.7 µM (inactive)
SF-268
  GI50: 64.3 µM (inactive)
HT-29
  GI50: 39 µM (inactive)
UO-31
  GI50: 14.6 µM (inactive)
COLO 205
  GI50: 25.1 µM (inactive)
U-251
  GI50: 72.9 µM (inactive)
T47D
  GI50: 50.6 µM (inactive)
SF-539
  GI50: 3.52 µM (inactive)
HOP-92
  GI50: 50.8 µM (inactive)
A549
  GI50: 17.3 µM (inactive)
OVCAR-4
  GI50: > 100 µM (inactive)
NCI-H522
  GI50: 43.7 µM (inactive)
NCI-H460
  GI50: 4.98 µM (inactive)
EKVX
  GI50: 89.9 µM (inactive)
MCF7
  GI50: 8.41 µM (inactive)

## O=C(O)CN1CCNCCNCC1
786-0
  GI50: > 100 µM (inactive)
Hs-578T
  GI50: > 100 µM (inactive)
KM12
  GI50: 59.6 µM (inactive)
A498
  GI50: > 100 µM (inactive)
DU-145
  GI50: > 100 µM (inactive)
SNB-19
  GI50: > 100 µM (inactive)
SR
  GI50: > 100 µM (inactive)
CAKI-1
  GI50: > 100 µM (inactive)
SN12C
  GI50: > 100 µM (inactive)
BT-549
  GI50: > 100 µM (inactive)
MDA-MB-435
  GI50: > 100 µM (inactive)
IGROV-1
  GI50: > 100 µM (inactive)
HCT-116
  GI50: > 100 µM (inactive)
OVCAR-8
  GI50: > 100 µM (inactive)
UACC-257
  GI50: > 100 µM (inactive)
M14
  GI50: > 100 µM (inactive)
SNB-75
  GI50: 17.5 µM (inactive)
OVCAR-5
  GI50: > 100 µM (inactive)
OVCAR-3
  GI50: > 100 µM (inactive)
RPMI-8226
  GI50: > 100 µM (inactive)
MDA-N
  GI50: > 100 µM (inactive)
ACHN
  GI50: > 100 µM (inactive)
HOP-62
  GI50: > 100 µM (inactive)
PC-3
  GI50: > 100 µM (inactive)
SK-OV-3
  GI50: > 100 µM (inactive)
NCI-H226
  GI50: > 100 µM (inactive)
UACC-62
  GI50: > 100 µM (inactive)
TK-10
  GI50: > 100 µM (inactive)
LOX IMVI
  GI50: > 100 µM (inactive)
SW-620
  GI50: > 100 µM (inactive)
K562
  GI50: > 100 µM (inactive)
MOLT-4
  GI50: > 100 µM (inactive)
MDA-MB-231
  GI50: > 100 µM (inactive)
HCT-15
  GI50: > 100 µM
SK-MEL-5
  GI50: > 100 µM (inactive)
NCI/ADR-RES
  GI50: > 100 µM (inactive)
SK-MEL-2
  GI50: > 100 µM (inactive)
CCRF-CEM
  GI50: > 100 µM (inactive)
SK-MEL-28
  GI50: > 100 µM (inactive)
HT-29
  GI50: > 100 µM (inactive)
UO-31
  GI50: > 100 µM (inactive)
COLO 205
  GI50: > 100 µM (inactive)
U-251
  GI50: > 100 µM (inactive)
HL-60
  GI50: 0.9 µM (active)
T47D
  GI50: > 100 µM (inactive)
SF-539
  GI50: > 100 µM (inactive)
HOP-92
  GI50: > 100 µM (inactive)
A549
  GI50: > 100 µM (inactive)
OVCAR-4
  GI50: > 100 µM (inactive)
NCI-H460
  GI50: > 100 µM (inactive)
EKVX
  GI50: > 100 µM (inactive)
MCF7
  GI50: > 100 µM (inactive)
